Assay results taken from patent publication US20140045807A2, “THE USE OF 3-METHOXY-PREGNENOLONE FOR THE PREPARATION OF A DRUG FOR TREATING A TRAUMATIC BRAIN INJURY” (priority 2004, published 2014).
Values after ≈ are worked out from the molar mass of the structure shown.

Tests used:
[1] = In vivo toxicity, daily injection for one month; parameters: species or system rat; conditions: rats, daily injection for one month of 48 mg/kg
[2] = tested on: MAP2; experiment: Western blot of MAP2 in cortex and hippocampus after CCI; type: in vivo, rat; conditions: 20 mg/kg, first injection 2 h post-trauma, day 35, injured and non-injured cortex and hippocampus
Description: FIG. 19: MAP-2 expression, 35 days after TBI, in the left-uninjured and right-injured hemispheres (A: cortex and B: hippocampus) of CCI-injured animals, receiving either vehicle (D0) or MAP4343 (D1: 10 mg/kg and D2: 20 mg/kg), 2 h after injury.
(§1) Samples were analyzed by Western-blot at day 35 post-trauma (D35) to evaluate the effects of MAP4343 on: MAP2 (the target of MAP4343 and a modulator of microtubule function), the post-synaptic markers PSD95 and spinophilin, the pre-synaptic marker synaptophysin, and the axonal growth/integrity marker GAP43.
(§2) Western blot was performed on cortex and hippocampus of TBI-injured animals receiving the first injection of MAP4343 (at 10 mg/kg or 20 mg/kg) or vehicle (sesame oil) 2 h after injury.
(§3) The expression level of various neuronal brain markers of plasticity was measured at day 35 post-trauma by western-blots in the cortex and hippocampus of left uninjured and right injured cerebral hemispheres of CCI traumatized animals receiving either vehicle (sesame oil, CCI-D0) or 3-methoxy-PREG (MAP4343) at 10 mg/kg (CCI-D1) or 20 mg/kg (CCI-D2), with first MAP4343 injection 2 h post-trauma.

[3] = tested on: human neuroblastoma HS-SY5Y cells; experiment: Cytotoxicity of okadaic acid, steroid protection (LDH release); type: cell-based; conditions: 24 hours, simultaneous addition, increasing concentrations
Excerpt: FIG. 6: Toxicity of okadaic acid. Steroid protection. […] Cell death was indicated by the release of lactate dehydrogenase (LDH) in the culture medium.
Okadaic acid is a protein phosphatase inhibiter. Thus, the hyperphosphorylation of tau protein is implicated in microtubule depolymerization and in human neuroblastoma HS-SY5Y cell death. The exposure of SY5Y cell cultures to okadaic acid does in fact cause significant cell death.

[4] = tested on: GAP43; experiment: Western blot of GAP43 in cortex and hippocampus after CCI; type: in vivo, rat; conditions: first injection 2 h post-trauma, day 35, injured cortex (20 mg/kg only), hippocampus and non-injured cortex (both doses)
Description: FIG. 23: GAP43 expression, 35 days after TBI, in the left-uninjured and right-injured hemispheres (A: cortex and B: hippocampus) of CCI-injured animals, receiving either vehicle (D0) or MAP4343 (D1: 10 mg/kg and D2: 20 mg/kg), 2 h after injury.
as §1, §2, §3

[5] = tested on: PC12 cells; experiment: Neuritic growth / sprouting in PC12 cells with NGF; type: cell-based, rat; conditions: increasing concentrations, 2, 5 and 8 days of culture (FIG. 3)
Description: Each molecule was tested in three culture wells. Measurements were taken for 200 cells per well using Scion Image software.
Neurite (neurite) length was measured for 200 cells per well after 2, 5, and 8 days of culture.
Stimulation of neuritic sprouting is conducted on PC12 cells differentiated in the presence of NGF (10 ng/ml) and the steroid being tested (30 μM) for 3 days. For each condition, the average length of the longest 200 neurites in each cell is measured simultaneously for 3 cultures.

[6] = biological target: Mineralocorticoid Receptor (MR) (Rattus norvegicus, UniProt P22199); experiment: Radioligand binding assay, MR; conditions: MAP4343 10 μM; 4.5 nM [^3H] D-Aldosterone; Wistar Rat kidney
Chain of Mineralocorticoid Receptor (MR) (P22199 whole entry): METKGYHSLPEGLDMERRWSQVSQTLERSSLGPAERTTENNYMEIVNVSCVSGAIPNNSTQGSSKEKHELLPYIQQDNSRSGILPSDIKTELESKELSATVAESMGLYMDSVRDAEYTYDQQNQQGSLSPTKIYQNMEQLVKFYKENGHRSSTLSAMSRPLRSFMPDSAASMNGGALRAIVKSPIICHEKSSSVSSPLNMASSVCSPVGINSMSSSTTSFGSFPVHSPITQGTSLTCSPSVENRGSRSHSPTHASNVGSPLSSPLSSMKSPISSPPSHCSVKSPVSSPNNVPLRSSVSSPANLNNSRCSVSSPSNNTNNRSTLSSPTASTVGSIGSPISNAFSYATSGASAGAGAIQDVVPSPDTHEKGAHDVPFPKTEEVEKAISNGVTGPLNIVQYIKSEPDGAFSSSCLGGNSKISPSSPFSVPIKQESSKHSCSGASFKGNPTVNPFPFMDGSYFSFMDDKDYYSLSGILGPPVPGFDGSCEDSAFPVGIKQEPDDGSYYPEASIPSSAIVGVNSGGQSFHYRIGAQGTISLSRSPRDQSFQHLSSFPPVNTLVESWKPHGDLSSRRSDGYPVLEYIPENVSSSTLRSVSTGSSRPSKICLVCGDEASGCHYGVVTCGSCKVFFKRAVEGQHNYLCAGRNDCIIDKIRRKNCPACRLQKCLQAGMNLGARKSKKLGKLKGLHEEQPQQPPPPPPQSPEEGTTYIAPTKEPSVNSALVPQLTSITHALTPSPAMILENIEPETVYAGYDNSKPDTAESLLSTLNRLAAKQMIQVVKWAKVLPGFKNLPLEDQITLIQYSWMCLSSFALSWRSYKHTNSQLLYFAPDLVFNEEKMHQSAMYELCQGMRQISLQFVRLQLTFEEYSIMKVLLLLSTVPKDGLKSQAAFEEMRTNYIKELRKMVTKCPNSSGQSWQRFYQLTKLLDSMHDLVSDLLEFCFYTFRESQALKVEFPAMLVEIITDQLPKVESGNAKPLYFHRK
Description: (§4) Binding affinity of 3-methoxy-PREG (MAP4343) for receptors of steroid hormones was evaluated using radioligand binding assays.

[7] = biological target: ERβ (Homo sapiens, UniProt Q92731); experiment: Radioligand binding assay, ERβ; conditions: MAP4343 10 μM; 0.5 nM [^3H] Estradiol; Human recombinant Sf9 cells
Chain of ERβ (Q92731 whole entry): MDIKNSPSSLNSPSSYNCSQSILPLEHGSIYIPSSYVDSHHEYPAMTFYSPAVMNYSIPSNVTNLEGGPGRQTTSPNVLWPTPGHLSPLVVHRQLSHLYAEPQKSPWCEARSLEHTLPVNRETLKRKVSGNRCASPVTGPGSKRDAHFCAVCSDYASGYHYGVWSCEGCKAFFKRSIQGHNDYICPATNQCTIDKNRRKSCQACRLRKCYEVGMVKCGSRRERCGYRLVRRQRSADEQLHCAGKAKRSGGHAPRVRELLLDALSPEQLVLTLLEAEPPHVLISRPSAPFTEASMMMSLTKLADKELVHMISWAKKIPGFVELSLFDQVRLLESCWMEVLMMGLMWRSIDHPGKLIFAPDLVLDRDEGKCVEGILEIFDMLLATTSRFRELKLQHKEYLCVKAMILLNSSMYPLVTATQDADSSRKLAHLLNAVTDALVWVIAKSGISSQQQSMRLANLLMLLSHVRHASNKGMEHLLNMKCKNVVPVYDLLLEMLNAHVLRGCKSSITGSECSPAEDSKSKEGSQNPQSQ
Description: as §4

[8] = biological target: Glucorticoid Receptor (GR) (Homo sapiens, UniProt P04150); experiment: Radioligand binding assay, GR; conditions: MAP4343 10 μM; 3 nM [^3H] Dexamethasone; Human HeLa S3 cells
Chain of Glucorticoid Receptor (GR) (P04150 whole entry): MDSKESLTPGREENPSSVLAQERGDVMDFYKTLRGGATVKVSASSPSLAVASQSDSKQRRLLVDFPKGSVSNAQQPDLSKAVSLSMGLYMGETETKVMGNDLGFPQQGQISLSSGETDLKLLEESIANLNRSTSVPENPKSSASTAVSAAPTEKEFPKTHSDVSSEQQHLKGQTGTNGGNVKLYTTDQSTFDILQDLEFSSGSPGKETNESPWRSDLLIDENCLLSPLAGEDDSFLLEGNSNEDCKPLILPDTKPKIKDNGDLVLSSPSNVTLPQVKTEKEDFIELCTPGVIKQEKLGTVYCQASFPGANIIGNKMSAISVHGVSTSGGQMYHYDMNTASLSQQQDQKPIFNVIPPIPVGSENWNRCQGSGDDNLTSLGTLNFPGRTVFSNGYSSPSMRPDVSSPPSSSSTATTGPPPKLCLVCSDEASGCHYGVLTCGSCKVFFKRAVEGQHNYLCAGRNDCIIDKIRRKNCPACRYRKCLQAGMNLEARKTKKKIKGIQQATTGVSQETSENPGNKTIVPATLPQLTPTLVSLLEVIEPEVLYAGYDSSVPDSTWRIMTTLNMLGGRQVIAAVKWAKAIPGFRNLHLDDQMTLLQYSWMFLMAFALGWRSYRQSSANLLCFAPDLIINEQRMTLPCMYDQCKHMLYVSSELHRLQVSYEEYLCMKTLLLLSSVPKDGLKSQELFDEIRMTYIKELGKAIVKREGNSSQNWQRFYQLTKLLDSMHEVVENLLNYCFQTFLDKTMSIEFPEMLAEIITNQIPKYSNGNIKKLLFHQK
Description: as §4

[9] = Solubility limit; type: physicochemical; conditions: read-out: solubility limits
[10] = Pharmacokinetics, GC/MS assay in brain and spinal cord; type: in vivo, rat; conditions: rats, 12 mg/kg subcutaneous in sesame oil; 1, 4, 8, 24 hours
Description: FIG. 9: Kinetics of the appearance of 3-methoxy-PREG (43B) in rat brain and spinal cord following subcutaneous injection of 43B (12 mg/kg) in a sesame oil solution.
The pharmacokinetics of the molecules tested in vivo are evaluated using gas chromatography/mass spectrometry (GC/MS) assays.

[11] = tested on: α-tubulin forms (Tyr/Glu-Tub, Acet-Tub) in rat hippocampus; experiment: Microtubule dynamics in rat hippocampus after single administration; type: in vivo; conditions: 10 mg/kg subcutaneously, 3 h following injection
Excerpt: Mean±SEM, n=6 per group. **p<0.01, *[…] vs sesame oil.
The effects produced by neurosteroids were compared with those produced by acute administration of the antidepressant drug fluoxetine (selective serotonin reuptake inhibitor; SSRI).

[12] = tested on: spinophilin; experiment: Western blot of spinophilin in cortex and hippocampus after CCI; type: in vivo, rat; conditions: 10 mg/kg or 20 mg/kg, first injection 2 h post-trauma, day 35, injured cortex and hippocampus and contralaterally
Description: FIG. 21: Spinophilin expression, 35 days after TBI, in the left-uninjured and right-injured hemispheres (A: cortex and B: hippocampus) of CCI-injured animals, receiving either vehicle (D0) or MAP4343 (D1: 10 mg/kg and D2: 20 mg/kg), 2 h after injury.
as §1, §2, §3

[13] = tested on: CCI-injured animals; experiment: Histological analysis of the hippocampus size after CCI; type: in vivo, rat; conditions: 10 mg/kg and 20 mg/kg, first injection 2 h after TBI, day 35
Description: FIG. 18: Size of the hippocampus of CCI-injured animals, receiving the first injection of MAP4343 (or vehicle) 2 h after TBI. Data are expressed in percentage of the non-injured hippocampus of Dose 0 (vehicle) animals. ***: p<0.001 Dose 0 injured vs non-injured hippocampus; $: p<0.05 vs Dose 0 injured hippocampus.
CCI was performed with an electromagnetic impact device as described (MyNeurolab, St. Louis, Mo.; Brody et al. 2007). Anesthesized rats were subjected to a single right lateral CCI, with the following parameters: impact centered 4.0 mm anterior to lambda and 4.5 mm […] of midline, within the craniotomy of the animal. The impact was set at a velocity of 4 m/s with a sustained depression of 200 ms, using a 5.0 mm tip.
Frozen sections were stained with cresyl violet. For each section analyzed, the size of the hippocampus was determined by first outlining all remaining tissue of each section taken at 500 μm intervals through the lesion (right hemisphere) or contra lateral hemisphere, thus providing a total tissue area (mm2) of the two hemispheres for each section. Then, the areas of sections were summed per hemisphere.

[14] = Neurosteroids and 3-methoxy-PREG levels in plasma and hippocampus; conditions: rat
[15] = 3 h following injection, 10 mg/kg subcutaneously

CO[C@H]1CC[C@@]2(C)C(=CC[C@H]3[C@@H]4CC[C@H](C(C)=O)[C@@]4(C)CC[C@@H]32)C1 [3-methoxy-PREG, 3β-methoxy-pregna-5-ene-20-one]
average weight and behavior [1]: affected neither average weight nor behavior | MAP-2 expression [2]: strong increase | cell death caused by okadaic acid (LDH release) [3]: the same effect, only much stronger | GAP-43 expression [4]: increased GAP-43 expression | increase in the length of neurites formed in the presence of NGF [5]: ≤ 500% | % inhibition of specific binding [6]: < 25% | % inhibition of specific binding [7]: < 25% | % inhibition of specific binding [8]: < 25% | solubility [9]: ~50 µM (≈ 16.5 µg/mL) | penetration into spinal cord and brain [10]: penetrates rapidly into the spinal cord and the brain | Acet-Tub (marker of stable microtubules) [11]: significantly decreased | Tyr/Glu-Tub ratio (index of microtubule dynamics) [11]: significantly increased | spinophilin expression [12]: increase in spinophilin expression | size of the injured hippocampus [13]: significantly increases the size of the injured hippocampus | conversion back to PREG or metabolism to PROG ([14]; 3 h after 10 mg/kg subcutaneously): not converted back to PREG or metabolized to PROG | concentration of the drug in hippocampus [14, 15]: 73.3 ± 14.68 ng/g | concentration of the drug in plasma [14, 15]: 21.11 ± 5.04 ng/mL
